Experiment: Spectroscopic measurements (absorption, emission, quantum yield, extinction coefficient)
Format: physicochemical
[1] = BDNCA library, difference emission minus absorption
[2] = BDNCA library, extinction coefficient; in M-1 cm-1 (unit assumed)
[3] = BDNCA library, fluorescence emission
[4] = absorption maximum, BDNCA library
[5] = difference of emission and absorption maxima
[6] = extinction coefficient, BDNCA library; in M-1 cm-1 (unit assumed)
[7] = fluorescence emission maximum, BDNCA library

| SMILES | Qunt. Yield (BDNCA library) | Abs (BDNCA library, absorption) [nm] | Flu-Abs [1] | ε [2] | Flu [3] | Abs [4] [nm] | Flu-Abs [5] | ε [6] | Flu [7] | Qunt. Yield (quantum yield, BDNCA library) |
| --- | --- | --- | --- | --- | --- | --- | --- | --- | --- | --- |
| CC1=CC(/C=C/c2cccc3ccccc23)=[N+]2C1=C(c1ccc(NC(=O)CCl)cc1)c1cccn1[B-]2(F)F [BDNCA-25] | 0.09 | 566 | 28 | 32,952 | 594 | – | – | – | – | – |
| CC1=CC(/C=C/c2cccc(Oc3ccc(C(C)(C)C)cc3)c2)=[N+]2C1=C(c1ccc(NC(=O)CCl)cc1)c1cccn1[B-]2(F)F [BDNCA-435] | – | – | – | – | – | 556 | 20 | 61,510 | 576 | 0.13 |
| COc1ccc(Oc2cccc(/C=C/C3=[N+]4C(=C(c5ccc(NC(=O)CCl)cc5)c5cccn5[B-]4(F)F)C(C)=C3)c2)cc1 [BDNCA-42] | 0.08 | 556 | 21 | 54,645 | 577 | – | – | – | – | – |
| COc1ccc(/C=C/C2=[N+]3C(=C(c4ccc(NC(=O)CCl)cc4)c4cccn4[B-]3(F)F)C(C)=C2)cc1O [BDNCA-132] | 0.02 | 569 | 30 | 36,796 | 599 | – | – | – | – | – |
| COc1cc(/C=C/C2=[N+]3C(=C(c4ccc(NC(=O)CCl)cc4)c4cccn4[B-]3(F)F)C(C)=C2)cc(OC)c1O [BDNCA-95] | 0.01 | 574 | 6 | 31,579 | 580 | – | – | – | – | – |
| CCCc1ccc(/C=C/C2=[N+]3C(=C(c4ccc(NC(=O)CCl)cc4)c4cccn4[B-]3(F)F)C(C)=C2)cc1 [BDNCA-77] | 0.09 | 559 | 22 | 45,034 | 581 | – | – | – | – | – |
| COc1ccc(/C=C/C2=[N+]3C(=C(c4ccc(NC(=O)CCl)cc4)c4cccn4[B-]3(F)F)C(C)=C2)cc1Cl [BDNCA-274] | 0.15 | 563 | 27 | 71,670 | 590 | – | – | – | – | – |
| CC1=CC(/C=C/c2ccc(OCc3ccccc3)cc2)=[N+]2C1=C(c1ccc(NC(=O)CCl)cc1)c1cccn1[B-]2(F)F [BDNCA-90] | 0.04 | 563 | 30 | 20,046 | 593 | – | – | – | – | – |
| COc1ccccc1/C=C/c1cc(C)c2n1[B-](F)(F)[N+]1=CC=CC1=C2c1ccc(NC(=O)CCl)cc1 [BDNCA-198] | 0.15 | 561 | 26 | 76,064 | 587 | – | – | – | – | – |
| Cc1ccc(/C=C/c2cc(C)c3n2[B-](F)(F)[N+]2=CC=CC2=C3c2ccc(NC(=O)CCl)cc2)cc1 [BDNCA-208] | 0.12 | 558 | 23 | 64,805 | 581 | – | – | – | – | – |
| COC(=O)c1ccc(/C=C/C2=[N+]3C(=C(c4ccc(NC(=O)CCl)cc4)c4cccn4[B-]3(F)F)C(C)=C2)cc1 [BDNCA-219] | 0.16 | 560 | 21 | 73,043 | 581 | – | – | – | – | – |
| Cc1cc(/C=C/c2ccc(OCc3ccc(F)cc3)cc2)n2c1C(c1ccc(NC(=O)CCl)cc1)=C1C=CC=[N+]1[B-]2(F)F [BDNCA-378] | – | – | – | – | – | 566 | 31 | 92,540 | 597 | 0.16 |
| CC1=CC(/C=C/C=C/c2ccc(N(C)C)cc2)=[N+]2C1=C(c1ccc(NC(=O)CCl)cc1)c1cccn1[B-]2(F)F [BDNCA-96] | weak | 622 | – | 50,801 | weak | – | – | – | – | – |
| CC1=CC(/C=C/c2cccc(O)c2Cl)=[N+]2C1=C(c1ccc(NC(=O)CCl)cc1)c1cccn1[B-]2(F)F [BDNCA-283] | 0.05 | 556 | 18 | 27,460 | 574 | – | – | – | – | – |
| CC1=CC(/C=C/c2ccc(C)c(F)c2)=[N+]2C1=C(c1ccc(NC(=O)CCl)cc1)c1cccn1[B-]2(F)F [BDNCA-249] | 0.12 | 556 | 21 | 71,945 | 577 | – | – | – | – | – |
| Cc1cc(/C=C/c2ccc(Oc3ccc(C=O)cc3)cc2)n2c1C(c1ccc(NC(=O)CCl)cc1)=C1C=CC=[N+]1[B-]2(F)F [BDNCA-304] | 0.02 | 561 | 25 | 18,673 | 586 | – | – | – | – | – |
| COc1cc(/C=C/C2=[N+]3C(=C(c4ccc(NC(=O)CCl)cc4)c4cccn4[B-]3(F)F)C(C)=C2)cc(OC)c1 [BDNCA-209] | 0.12 | 556 | 20 | 62,334 | 576 | – | – | – | – | – |
| Cc1cc(/C=C/c2cc(F)ccc2O)n2c1C(c1ccc(NC(=O)CCl)cc1)=C1C=CC=[N+]1[B-]2(F)F [BDNCA-318] | – | – | – | – | – | 564 | 25 | 18,398 | 589 | 0.02 |
| Cc1cc(/C=C/c2ccc(SC(F)(F)F)cc2)n2c1C(c1ccc(NC(=O)CCl)cc1)=C1C=CC=[N+]1[B-]2(F)F [BDNCA-363] | – | – | – | – | – | 558 | 18 | 41,190 | 576 | 0.08 |
| CC1=CC(/C=C/c2ccc(C)cc2C)=[N+]2C1=C(c1ccc(NC(=O)CCl)cc1)c1cccn1[B-]2(F)F [BDNCA-370] | – | – | – | – | – | 507 | 78 | 34,050 | 585 | 0.08 |
| CC1=CC(/C=C/c2ccc(C(C)C)cc2)=[N+]2C1=C(c1ccc(NC(=O)CCl)cc1)c1cccn1[B-]2(F)F [BDNCA-19] | 0.13 | 558 | 22 | 61,236 | 580 | – | – | – | – | – |
| CC1=CC(/C=C/c2ccc(Oc3ccc(C)cc3)cc2)=[N+]2C1=C(c1ccc(NC(=O)CCl)cc1)c1cccn1[B-]2(F)F [BDNCA-300] | 0.21 | 563 | 27 | 102,151 | 590 | – | – | – | – | – |
| CC1=CC(/C=C/c2cn(C)c3ccccc23)=[N+]2C1=C(c1ccc(NC(=O)CCl)cc1)c1cccn1[B-]2(F)F [BDNCA-94] | 0.02 | 548 | 114 | 23,890 | 662 | – | – | – | – | – |
| Cc1cc(/C=C/c2ccc(N(C)CCO)cc2)n2c1C(c1ccc(NC(=O)CCl)cc1)=C1C=CC=[N+]1[B-]2(F)F [BDNCA-91] | weak | 559 | – | 34,050 | weak | – | – | – | – | – |
| Cc1cc(/C=C/c2ccc(-c3ccccc3)o2)n2c1C(c1ccc(NC(=O)CCl)cc1)=C1C=CC=[N+]1[B-]2(F)F [BDNCA-319] | – | – | – | – | – | 598 | 58 | 54,096 | 656 | 0.05 |
| CC1=CC(/C=C/c2cc(Br)ccc2O)=[N+]2C1=C(c1ccc(NC(=O)CCl)cc1)c1cccn1[B-]2(F)F [BDNCA-73] | 0.04 | 564 | 21 | 27,185 | 585 | – | – | – | – | – |
| CC1=CC(/C=C/c2c(C)cccc2Cl)=[N+]2C1=C(c1ccc(NC(=O)CCl)cc1)c1cccn1[B-]2(F)F [BDNCA-285] | 0.12 | 544 | 27 | 44,211 | 571 | – | – | – | – | – |
| CCCOc1ccc(/C=C/c2cc(C)c3n2[B-](F)(F)[N+]2=CC=CC2=C3c2ccc(NC(=O)CCl)cc2)cc1 [BDNCA-140] | 0.07 | 566 | 32 | 27,185 | 598 | – | – | – | – | – |
| COc1cc(Cl)cc(/C=C/C2=[N+]3C(=C(c4ccc(NC(=O)CCl)cc4)c4cccn4[B-]3(F)F)C(C)=C2)c1O [BDNCA-275] | 0.01 | 563 | 22 | 60,686 | 585 | – | – | – | – | – |
| CC1=CC(/C=C/c2ccc3ccccc3c2)=[N+]2C1=C(c1ccc(NC(=O)CCl)cc1)c1cccn1[B-]2(F)F [BDNCA-137] | 0.10 | 564 | 20 | 43,387 | 584 | – | – | – | – | – |

From patent publication US9423396B2, “Bodipy structure fluorescence probes for diverse biological applications” (National University of Singapore, priority 2011, dated 2016)
